Experiments:
Details in all cases: dose 6.7 µg/ml
[1] = target: T1, Tyrosine-protein phosphatase non-receptor type 2 (Homo sapiens) (UniProt P17706); test: Inhibition of human recombinant TCPTP expressed in Escherichia coli assessed as inhibition of phosphatase activity by measuring p-nitrophenyl phosphate at 6.7 microg/ml measured after 60 mins
T1 sequence (whole entry): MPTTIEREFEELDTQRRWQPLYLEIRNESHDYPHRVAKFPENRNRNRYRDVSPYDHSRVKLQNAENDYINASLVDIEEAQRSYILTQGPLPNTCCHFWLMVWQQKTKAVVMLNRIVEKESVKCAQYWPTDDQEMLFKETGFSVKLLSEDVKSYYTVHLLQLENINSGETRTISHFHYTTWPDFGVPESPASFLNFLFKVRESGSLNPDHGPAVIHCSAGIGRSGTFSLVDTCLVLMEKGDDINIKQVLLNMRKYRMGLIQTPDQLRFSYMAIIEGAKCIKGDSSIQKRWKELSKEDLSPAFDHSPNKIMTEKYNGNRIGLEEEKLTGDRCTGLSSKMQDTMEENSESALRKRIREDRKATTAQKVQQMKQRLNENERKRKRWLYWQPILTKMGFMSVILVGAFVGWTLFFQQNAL

[2] = target: T2, Receptor-type tyrosine-protein phosphatase C (Homo sapiens) (UniProt P08575); test: Inhibition of human recombinant CD45 expressed in Escherichia coli assessed as inhibition of phosphatase activity by measuring p-nitrophenyl phosphate at 6.7 microg/ml measured after 60 mins
T2 sequence (whole entry): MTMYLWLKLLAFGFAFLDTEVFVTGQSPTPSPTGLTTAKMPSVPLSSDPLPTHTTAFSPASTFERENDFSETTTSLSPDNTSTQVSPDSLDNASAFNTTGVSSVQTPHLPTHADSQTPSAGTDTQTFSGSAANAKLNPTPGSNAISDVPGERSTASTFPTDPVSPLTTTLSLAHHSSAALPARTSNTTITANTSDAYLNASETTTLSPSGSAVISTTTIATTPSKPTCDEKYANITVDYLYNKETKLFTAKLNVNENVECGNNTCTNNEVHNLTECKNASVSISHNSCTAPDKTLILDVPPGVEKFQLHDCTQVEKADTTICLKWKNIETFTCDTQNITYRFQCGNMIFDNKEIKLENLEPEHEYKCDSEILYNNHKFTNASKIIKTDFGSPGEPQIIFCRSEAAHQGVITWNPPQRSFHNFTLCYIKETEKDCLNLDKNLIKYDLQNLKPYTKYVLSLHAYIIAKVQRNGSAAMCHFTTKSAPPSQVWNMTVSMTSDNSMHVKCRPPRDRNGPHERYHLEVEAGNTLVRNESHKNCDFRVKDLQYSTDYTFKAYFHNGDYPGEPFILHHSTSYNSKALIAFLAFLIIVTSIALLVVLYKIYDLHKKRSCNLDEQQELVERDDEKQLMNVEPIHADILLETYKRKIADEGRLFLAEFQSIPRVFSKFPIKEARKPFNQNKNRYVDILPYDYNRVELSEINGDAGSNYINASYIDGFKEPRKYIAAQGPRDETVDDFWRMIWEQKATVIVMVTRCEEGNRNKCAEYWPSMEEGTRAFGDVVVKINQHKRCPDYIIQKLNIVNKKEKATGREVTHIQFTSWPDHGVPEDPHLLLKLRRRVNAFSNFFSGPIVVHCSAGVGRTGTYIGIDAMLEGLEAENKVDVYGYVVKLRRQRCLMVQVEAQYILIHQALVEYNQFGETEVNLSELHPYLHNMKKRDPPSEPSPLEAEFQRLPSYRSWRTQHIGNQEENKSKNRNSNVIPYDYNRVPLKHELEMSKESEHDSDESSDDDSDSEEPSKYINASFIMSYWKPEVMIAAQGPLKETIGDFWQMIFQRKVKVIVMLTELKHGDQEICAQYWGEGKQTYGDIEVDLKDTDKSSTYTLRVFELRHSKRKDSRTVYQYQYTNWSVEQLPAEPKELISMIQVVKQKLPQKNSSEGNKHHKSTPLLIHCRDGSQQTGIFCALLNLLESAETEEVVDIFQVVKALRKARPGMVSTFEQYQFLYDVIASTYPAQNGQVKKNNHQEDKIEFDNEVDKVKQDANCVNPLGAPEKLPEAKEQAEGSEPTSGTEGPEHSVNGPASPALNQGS

[3] = target: T3, Tyrosine-protein phosphatase non-receptor type 1 (Homo sapiens) (UniProt P18031); test: Inhibition of human recombinant PTP1B expressed in Escherichia coli assessed as inhibition of phosphatase activity by measuring p-nitrophenyl phosphate at 6.7 microg/ml measured after 60 mins
T3 sequence (whole entry): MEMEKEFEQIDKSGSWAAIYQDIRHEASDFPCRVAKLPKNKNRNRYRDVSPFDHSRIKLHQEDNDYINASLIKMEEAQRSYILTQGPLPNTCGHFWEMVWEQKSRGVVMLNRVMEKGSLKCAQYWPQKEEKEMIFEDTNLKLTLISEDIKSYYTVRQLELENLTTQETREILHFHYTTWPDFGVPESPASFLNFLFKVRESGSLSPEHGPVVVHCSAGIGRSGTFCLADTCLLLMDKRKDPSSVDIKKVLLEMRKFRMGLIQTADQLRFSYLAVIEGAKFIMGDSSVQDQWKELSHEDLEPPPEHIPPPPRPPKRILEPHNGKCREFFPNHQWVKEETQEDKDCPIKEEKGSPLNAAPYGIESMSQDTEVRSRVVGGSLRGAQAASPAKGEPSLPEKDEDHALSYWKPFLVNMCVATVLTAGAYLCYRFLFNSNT

[4] = target: T4, Tyrosine-protein phosphatase non-receptor type 9 (Homo sapiens) (UniProt P43378); test: Inhibition of human recombinant MEG2 expressed in Escherichia coli assessed as inhibition of phosphatase activity by measuring p-nitrophenyl phosphate at 6.7 microg/ml measured after 60 mins
T4 sequence (whole entry): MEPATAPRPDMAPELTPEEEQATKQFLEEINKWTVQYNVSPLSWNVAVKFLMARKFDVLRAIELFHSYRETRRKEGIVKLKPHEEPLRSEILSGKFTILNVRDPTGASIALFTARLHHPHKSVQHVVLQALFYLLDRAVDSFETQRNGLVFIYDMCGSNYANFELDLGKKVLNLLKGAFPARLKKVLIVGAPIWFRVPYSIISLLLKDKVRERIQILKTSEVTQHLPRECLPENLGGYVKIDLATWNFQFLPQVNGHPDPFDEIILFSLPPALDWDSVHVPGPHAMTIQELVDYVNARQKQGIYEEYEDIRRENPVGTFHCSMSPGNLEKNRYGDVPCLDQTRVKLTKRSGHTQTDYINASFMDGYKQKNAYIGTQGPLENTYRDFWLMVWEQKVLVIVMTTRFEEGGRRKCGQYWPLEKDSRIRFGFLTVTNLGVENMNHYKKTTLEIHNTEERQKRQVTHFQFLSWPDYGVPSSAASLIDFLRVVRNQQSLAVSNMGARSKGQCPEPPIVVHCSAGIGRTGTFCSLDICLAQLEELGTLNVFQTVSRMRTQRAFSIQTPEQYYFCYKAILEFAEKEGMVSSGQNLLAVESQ

Measured: inhibition

CC1=C2CC(=O)OC(C)(C)[C@]23O[C@@H]3[C@@H]2O[C@@]3(O)[C@@H](C)O[C@H]4OC(=O)[C@]5(C)C[C@H]1[C@]2(C)[C@@]31C(=O)O[C@@]415
< 60%: all assays above

COC(=O)[C@@]12[C@@]3(C)[C@@H]4C=C5C(=CC(=O)OC5(C)C)[C@@](C)(O)[C@@H]3C[C@@]3(C)C(=O)O[C@@H](O[C@@H](C)[C@@]1(O)O4)[C@@]23O
< 60%: all assays above

COC(=O)[C@]12C(=O)[C@@](C)(O)C(=O)[C@](C)(C[C@H]3C(C)=C4CC(=O)OC(C)(C)C4=CC[C@@]31C)[C@]21CO1
< 60%: all assays above

COC(=O)CC1=C(C)[C@H]2C[C@]3(C)C(=O)O[C@@H]4O[C@H](C)[C@]5(O)O[C@@H]([C@H]6O[C@@]16C(C)(C)O)[C@@]2(C)[C@@]51C(=O)O[C@@]413
< 60%: all assays above

CC1=C2CC(=O)OC(C)(C)C2=CC[C@@]2(C)[C@H]1C[C@@](C)(C(=O)O)[C@]13COC(=O)[C@@]12C(=O)[C@H](C)O3
< 60%: all assays above

COC(=O)[C@]12[C@@H]3[C@@H](O)O[C@@H](C)[C@@]14OC(=O)[C@]3(C)C[C@H]1C(C)=C3CC(=O)OC(C)(C)[C@@]35O[C@H]5[C@H](O4)[C@@]12C
< 60%: all assays above

COC(=O)[C@]12C3=C(C)O[C@@H]4OC(=O)[C@](C)(C[C@H]5C(C)=C6CC(=O)O[C@@]6(C(C)(C)O)[C@@H](C[C@@]51C)O3)[C@@H]42
< 60%: all assays above

COC(=O)[C@]12[C@@H]3[C@H]4OC(=O)[C@]3(C)C[C@H]3C(C)=C5CC(=O)OC(C)(C)[C@@]56O[C@H]6[C@H](O[C@]1(O)[C@H](C)O4)[C@@]32C
< 60%: all assays above

COC(=O)CC1=C(C)[C@@H]2C[C@@]3(C)C(=O)O[C@H]4O[C@@H](C)[C@@]5(O)O[C@@H]([C@@H]6O[C@]16C(C)(C)O)[C@]2(C)[C@@]5(C(=O)OC)[C@H]43
< 60%: all assays above

COC(=O)[C@]12C3=C(C)O[C@@H]4OC(=O)[C@](C)(C[C@H]5C(C)=C6CC(=O)O[C@@]6(C(C)(C)O)[C@H](O3)[C@H](O)[C@@]51C)[C@@H]42
< 60%: all assays above

COC(=O)CC1=C(C)[C@@H]2C[C@@]3(C)C(=O)O[C@H]4O[C@@H](C)[C@@]5(O)O[C@@H]([C@@H]6O[C@]16C(C)(C)O)[C@]2(C)[C@@]5(C(=O)OC)[C@]43O
< 60%: all assays above

COC(=O)[C@]12[C@@H]3[C@H]4OC(=O)[C@]3(C)CC3=C(C)C5=C(C[C@H](O[C@]1(O)[C@H](C)O4)[C@@]32C)C(C)(C)OC(=O)C5
< 60%: all assays above

COC(=O)[C@]12C(=O)[C@H](C)O[C@@H]3OC(=O)[C@](C)(C[C@H]4C(C)=C5CC(=O)OC(C)(C)C5=CC[C@@]41C)[C@@H]32 [BERKELEYACETAL A]
< 60%: all assays above

Reference: ChEMBL document CHEMBL4828768, “Talaromynoids A-I, Highly Oxygenated Meroterpenoids from the Marine-Derived Fungus Talaromyces purpureogenus SCSIO 41517 and Their Lipid Accumulation Inhibitory Activities” (J Nat Prod, 2021)
